# Data taken from patent publication US10472420B2, “Immune response modifier conjugates” (3M INNOVATIVE PROPERTIES COMPANY, priority 2006, dated 2019).
row,Structure (SMILES),melting point [°C]
1,"CCOCc1nc2c(N)nc3ccccc3c2n1CC(C)(C)NC(=O)CCC(=O)NN [IRM5, N-{2-[4-Amino-2-(ethoxymethyl)-1H-imidazo[4,5-c]quinolin-1-yl]-1,1-dimethylethyl}-4-hydrazino-4-oxobutanamide]",203 to 204.6
2,"CCOCc1nc2c(N)nc3cc(OCCCCCCNC(=O)CCS)ccc3c2n1CC(C)(C)NS(C)(=O)=O [IRM10, N-{6-[(4-Amino-2-(ethoxymethyl)-1-{2-methyl-2-[(methylsulfonyl)amino]propyl}-1H-imidazo[4,5-c]quinolin-7-yl)oxy]hexyl}-3-mercaptopropanamide]",152 to 157
